Values quoted from earlier work in US20090246264A1, “Transdermal Tobacco Alkaloid Patch” (Fertin Pharma, priority 2005, published 2009).

Details: pure nicotine placed on the skin of an ordinary human being

With `CN1CCCC1c1cccnc1` (stereo not shown) [nicotine] as the compound, how does the lethal dose read?
The lethal dose was 50 mg.
